Article PMC10175918 (Communications Biology, 2023)
Like-named read-outs stand apart in the source and are kept apart here.

Key:
Assay in all cases: TGFα-shedding assay-based GPCR screening with chimeric Gα subunit proteins
Type in all cases: cell-based
348 GPCRs [1] = biological target: T1, 348 GPCRs (Homo sapiens, UniProt O00222); settings: 10µM, Favipiravir 100μM
T1 construct: expressed in transfected cells; host or cells: HEK293A

348 GPCRs [2] = biological target: T2, 348 GPCRs (Homo sapiens, UniProt P08913)
T2 construct: expressed in transfected cells; host or cells: HEK293A
T2 sequence (P08913 1-465): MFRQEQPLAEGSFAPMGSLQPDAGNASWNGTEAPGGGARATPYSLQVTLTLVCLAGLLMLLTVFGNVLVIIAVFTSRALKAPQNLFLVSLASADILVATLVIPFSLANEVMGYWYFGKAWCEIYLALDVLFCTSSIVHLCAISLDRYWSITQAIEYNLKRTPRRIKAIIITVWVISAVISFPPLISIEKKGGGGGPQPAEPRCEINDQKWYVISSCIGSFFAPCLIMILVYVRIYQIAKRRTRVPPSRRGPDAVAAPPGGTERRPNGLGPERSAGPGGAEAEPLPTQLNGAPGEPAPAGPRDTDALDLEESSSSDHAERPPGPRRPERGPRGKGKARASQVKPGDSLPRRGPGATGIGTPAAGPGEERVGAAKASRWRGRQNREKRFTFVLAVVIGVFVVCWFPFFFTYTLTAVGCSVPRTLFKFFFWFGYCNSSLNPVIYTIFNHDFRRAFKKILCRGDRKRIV

348 GPCRs [3] = biological target: T3, 348 GPCRs (Homo sapiens, UniProt P25025)
T3 sequence (P25025 1-360): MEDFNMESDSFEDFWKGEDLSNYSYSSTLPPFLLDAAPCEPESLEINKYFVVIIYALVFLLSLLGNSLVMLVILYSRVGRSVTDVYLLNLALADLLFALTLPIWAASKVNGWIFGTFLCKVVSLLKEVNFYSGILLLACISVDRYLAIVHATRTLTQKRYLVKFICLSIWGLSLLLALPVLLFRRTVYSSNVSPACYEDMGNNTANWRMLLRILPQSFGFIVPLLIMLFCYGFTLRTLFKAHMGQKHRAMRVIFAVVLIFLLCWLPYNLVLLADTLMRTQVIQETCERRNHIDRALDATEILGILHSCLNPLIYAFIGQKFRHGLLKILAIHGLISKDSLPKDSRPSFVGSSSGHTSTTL

348 GPCRs [4] = biological target: T4, 348 GPCRs (Homo sapiens, UniProt P30968); settings: 10µM, Favipiravir 100μM
T4 construct: expressed in transfected cells; host or cells: HEK293A
T4 sequence (P30968 1-328): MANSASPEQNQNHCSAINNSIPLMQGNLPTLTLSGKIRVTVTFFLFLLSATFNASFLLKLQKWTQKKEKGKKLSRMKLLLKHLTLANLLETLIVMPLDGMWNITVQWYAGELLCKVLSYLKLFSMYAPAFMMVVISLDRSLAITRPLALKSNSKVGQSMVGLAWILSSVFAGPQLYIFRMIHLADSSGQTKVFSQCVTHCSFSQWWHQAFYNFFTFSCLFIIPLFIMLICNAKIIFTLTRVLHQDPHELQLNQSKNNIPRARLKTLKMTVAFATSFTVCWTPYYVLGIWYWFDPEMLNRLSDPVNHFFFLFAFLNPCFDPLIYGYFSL

348 GPCRs [5] = biological target: T5, 348 GPCRs (Homo sapiens, UniProt P46095)
T5 construct: expressed in transfected cells; host or cells: HEK293A

348 GPCRs [6] = biological target: T6, 348 GPCRs (Homo sapiens, UniProt Q8TDS7); settings: 10µM, Favipiravir 100μM
T6 construct: expressed in transfected cells; host or cells: HEK293A

348 GPCRs [7] = biological target: T7, 348 GPCRs (Homo sapiens, UniProt Q8TDV5)
T7 construct: expressed in transfected cells; host or cells: HEK293A
T7 sequence (Q8TDV5 1-335): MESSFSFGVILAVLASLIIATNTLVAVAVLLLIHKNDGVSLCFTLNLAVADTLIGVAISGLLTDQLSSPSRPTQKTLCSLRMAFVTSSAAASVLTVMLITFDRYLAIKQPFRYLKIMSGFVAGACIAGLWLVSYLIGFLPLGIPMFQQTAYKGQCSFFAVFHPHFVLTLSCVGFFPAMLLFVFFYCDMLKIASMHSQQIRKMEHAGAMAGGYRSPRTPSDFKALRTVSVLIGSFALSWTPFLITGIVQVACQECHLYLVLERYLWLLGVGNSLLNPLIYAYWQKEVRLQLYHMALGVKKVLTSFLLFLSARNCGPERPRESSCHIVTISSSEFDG

348 GPCRs [8] = biological target: T8, 348 GPCRs (Homo sapiens, UniProt Q99680); settings: 10µM, Favipiravir 100μM
T8 construct: expressed in transfected cells; host or cells: HEK293A

348 GPCRs [9] = biological target: T9, 348 GPCRs (Homo sapiens, UniProt Q9HBW0); settings: 10µM, Favipiravir 100μM
T9 construct: expressed in transfected cells; host or cells: HEK293A

348 GPCRs [10] = biological target: T10, 348 GPCRs (Homo sapiens, UniProt Q9Y271)
T10 construct: expressed in transfected cells; host or cells: HEK293A
T10 sequence (Q9Y271 1-337): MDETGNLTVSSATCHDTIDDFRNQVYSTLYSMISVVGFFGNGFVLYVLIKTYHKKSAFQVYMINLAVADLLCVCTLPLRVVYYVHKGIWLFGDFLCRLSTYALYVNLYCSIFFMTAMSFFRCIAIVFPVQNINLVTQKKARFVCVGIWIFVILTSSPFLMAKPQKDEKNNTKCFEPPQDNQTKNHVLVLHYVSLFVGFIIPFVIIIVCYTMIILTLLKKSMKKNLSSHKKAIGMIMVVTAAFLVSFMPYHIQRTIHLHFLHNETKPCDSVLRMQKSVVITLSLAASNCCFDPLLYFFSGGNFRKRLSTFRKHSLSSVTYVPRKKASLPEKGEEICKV

[11] = GRM8 (glutamate receptor, metabotropic 8), read-out: % GPCR activation compared to TPA
[12] = GPCR α2A (adrenoceptor alpha 2A), read-out: % GPCR activation compared to TPA
[13] = GPCR CXCR2 (C-X-C motif chemokine receptor 2), read-out: % GPCR activation compared to TPA
[14] = GNRHR (gonadotropin releasing hormone receptor), read-out: % GPCR activation compared to TPA
[15] = GPCR GPR6 (G protein-coupled receptor 6), read-out: % GPCR activation compared to TPA
[16] = MRGPRD (MAS-related GPR, member D), read-out: % GPCR activation compared to TPA
[17] = GPCR GPR119 (G protein-coupled receptor 119), read-out: % GPCR activation compared to TPA
[18] = GPR22 (G Protein-Coupled Receptor 22), read-out: % GPCR activation compared to TPA
[19] = LPAR2 (lysophosphatidic acid receptor 2), read-out: % GPCR activation compared to TPA
[20] = GPCR CysLT1 (cysteinyl leukotriene receptor 1), read-out: % GPCR activation compared to TPA
[21] = read-out: % GPCR activation compared to TPA, GRM8 (glutamate receptor, metabotropic 8)
[22] = read-out: % GPCR activation compared to TPA, GPCR α2A (adrenoceptor alpha 2A)
[23] = read-out: % GPCR activation compared to TPA, GPCR CXCR2 (C-X-C motif chemokine receptor 2)
[24] = read-out: % GPCR activation compared to TPA, GNRHR (gonadotropin releasing hormone receptor)
[25] = read-out: % GPCR activation compared to TPA, GPCR GPR6 (G protein-coupled receptor 6)
[26] = read-out: % GPCR activation compared to TPA, MRGPRD (MAS-related GPR, member D)
[27] = read-out: % GPCR activation compared to TPA, GPCR GPR119 (G protein-coupled receptor 119)
[28] = read-out: % GPCR activation compared to TPA, GPR22 (G Protein-Coupled Receptor 22)
[29] = read-out: % GPCR activation compared to TPA, LPAR2 (lysophosphatidic acid receptor 2)
[30] = read-out: % GPCR activation compared to TPA, GPCR CysLT1 (cysteinyl leukotriene receptor 1)

T8 sequence (Q99680 whole entry): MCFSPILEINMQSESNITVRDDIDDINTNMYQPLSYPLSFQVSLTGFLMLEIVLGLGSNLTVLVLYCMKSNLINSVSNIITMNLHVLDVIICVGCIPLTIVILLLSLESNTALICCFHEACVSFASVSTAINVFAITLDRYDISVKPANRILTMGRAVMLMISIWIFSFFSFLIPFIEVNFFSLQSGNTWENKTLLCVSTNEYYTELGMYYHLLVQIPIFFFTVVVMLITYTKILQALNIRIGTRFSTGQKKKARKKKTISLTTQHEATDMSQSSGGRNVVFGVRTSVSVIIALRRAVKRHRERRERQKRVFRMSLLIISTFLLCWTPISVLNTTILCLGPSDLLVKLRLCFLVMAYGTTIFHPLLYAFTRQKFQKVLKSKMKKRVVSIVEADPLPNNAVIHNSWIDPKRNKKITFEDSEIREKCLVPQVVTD
T1 sequence (O00222 34-908): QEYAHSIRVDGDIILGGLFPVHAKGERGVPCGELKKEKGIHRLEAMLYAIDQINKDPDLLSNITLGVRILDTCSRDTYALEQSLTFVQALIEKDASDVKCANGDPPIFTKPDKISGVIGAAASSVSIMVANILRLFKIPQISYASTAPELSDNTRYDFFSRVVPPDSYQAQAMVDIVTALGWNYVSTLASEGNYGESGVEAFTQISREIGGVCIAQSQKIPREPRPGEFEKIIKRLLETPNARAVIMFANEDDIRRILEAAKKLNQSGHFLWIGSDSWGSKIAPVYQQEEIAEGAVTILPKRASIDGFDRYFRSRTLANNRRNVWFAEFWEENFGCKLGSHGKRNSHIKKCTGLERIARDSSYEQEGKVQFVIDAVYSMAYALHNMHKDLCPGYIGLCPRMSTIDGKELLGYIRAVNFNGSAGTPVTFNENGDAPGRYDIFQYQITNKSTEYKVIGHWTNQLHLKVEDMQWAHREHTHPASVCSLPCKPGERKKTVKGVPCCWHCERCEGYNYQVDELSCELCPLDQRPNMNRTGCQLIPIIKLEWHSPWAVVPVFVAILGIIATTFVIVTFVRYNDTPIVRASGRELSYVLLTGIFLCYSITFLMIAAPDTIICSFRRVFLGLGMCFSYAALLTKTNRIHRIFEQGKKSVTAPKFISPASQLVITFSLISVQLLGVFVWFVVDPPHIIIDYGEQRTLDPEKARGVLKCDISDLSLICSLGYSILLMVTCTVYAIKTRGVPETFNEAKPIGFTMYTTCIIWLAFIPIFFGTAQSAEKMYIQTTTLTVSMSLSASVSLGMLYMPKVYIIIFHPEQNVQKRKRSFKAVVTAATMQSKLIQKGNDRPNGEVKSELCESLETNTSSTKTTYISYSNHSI
T6 sequence (Q8TDS7 whole entry): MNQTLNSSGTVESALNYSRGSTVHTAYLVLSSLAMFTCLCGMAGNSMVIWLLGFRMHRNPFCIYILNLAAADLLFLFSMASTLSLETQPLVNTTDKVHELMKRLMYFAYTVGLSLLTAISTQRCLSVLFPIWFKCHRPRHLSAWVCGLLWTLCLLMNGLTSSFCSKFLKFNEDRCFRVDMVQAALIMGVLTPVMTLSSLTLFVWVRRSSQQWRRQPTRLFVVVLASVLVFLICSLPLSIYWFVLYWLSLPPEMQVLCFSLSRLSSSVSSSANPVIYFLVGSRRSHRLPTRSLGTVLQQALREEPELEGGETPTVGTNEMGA
T9 sequence (Q9HBW0 whole entry): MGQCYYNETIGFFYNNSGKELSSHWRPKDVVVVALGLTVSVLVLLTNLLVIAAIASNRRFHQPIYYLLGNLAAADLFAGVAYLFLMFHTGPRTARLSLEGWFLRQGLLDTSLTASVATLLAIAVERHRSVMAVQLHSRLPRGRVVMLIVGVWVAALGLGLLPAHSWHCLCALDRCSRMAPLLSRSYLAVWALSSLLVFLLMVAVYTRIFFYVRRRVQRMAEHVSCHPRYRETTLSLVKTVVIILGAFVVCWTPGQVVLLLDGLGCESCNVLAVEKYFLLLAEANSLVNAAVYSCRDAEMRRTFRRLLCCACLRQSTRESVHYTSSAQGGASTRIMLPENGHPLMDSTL
T5 sequence (P46095 whole entry): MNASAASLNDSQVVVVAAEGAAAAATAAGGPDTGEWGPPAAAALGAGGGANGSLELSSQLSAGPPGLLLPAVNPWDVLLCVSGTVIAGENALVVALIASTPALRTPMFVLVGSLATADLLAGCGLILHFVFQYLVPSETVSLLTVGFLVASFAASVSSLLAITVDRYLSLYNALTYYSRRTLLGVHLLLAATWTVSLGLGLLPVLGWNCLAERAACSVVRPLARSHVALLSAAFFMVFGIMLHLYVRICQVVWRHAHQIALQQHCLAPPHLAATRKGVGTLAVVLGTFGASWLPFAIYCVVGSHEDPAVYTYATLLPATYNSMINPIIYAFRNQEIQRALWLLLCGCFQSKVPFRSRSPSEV

Row | activation at 10 µM (348 GPCRs [1]; [11]) [%] | activation at 10 µM (348 GPCRs [2]; [12]) [%] | activation at 10 µM (348 GPCRs [3]; [13]) [%] | activation at 10 µM (348 GPCRs [4]; [14]) [%] | activation at 10 µM (348 GPCRs [5]; [15]) [%] | activation at 100 µM (348 GPCRs [6]; [16]) [%] | activation at 10 µM (348 GPCRs [7]; [17]) [%] | activation at 100 µM (348 GPCRs [8]; [18]) [%] | activation at 10 µM (348 GPCRs [9]; [19]) [%] | activation at 10 µM (348 GPCRs [10]; [20]) [%] | Structure (SMILES) | activation at 10 µM (348 GPCRs [1]; [21]) [%] | activation at 10 µM (348 GPCRs [2]; [22]) [%] | activation at 10 µM (348 GPCRs [3]; [23]) [%] | activation at 10 µM (348 GPCRs [4]; [24]) [%] | activation at 10 µM (348 GPCRs [5]; [25]) [%] | activation at 100 µM (348 GPCRs [6]; [26]) [%] | activation at 10 µM (348 GPCRs [7]; [27]) [%] | activation at 100 µM (348 GPCRs [8]; [28]) [%] | activation at 10 µM (348 GPCRs [9]; [29]) [%] | activation at 10 µM (348 GPCRs [10]; [30]) [%] | other results
1 | -1.24 | -0.949 | 0.398 | -3.48 | 5.11 | -4.53 | 5.33 | 0.701 | -0.123 | -1.14 | N#C[C@@]1(c2ccc3c(N)ncnn23)O[C@H](CO)[C@@H](O)[C@H]1O [GS441524] |  |  |  |  |  |  |  |  |  |  | 
2 | -1.56 |  |  | -1.3 |  | -0.473 |  | -0.704 | 1.47 |  | NC(=O)c1nc(F)cnc1O [favipiravir, 6-fluoro-3-hydroxy-2-pyrazinecarboxamide] |  |  |  |  |  |  |  |  |  |  | activation at 100 µM (348 GPCRs [2]; GPCR α2A (adrenoceptor alpha 2A), 100μM, read-out: % GPCR activation compared to TPA): 1.73%; activation at 100 µM (348 GPCRs [3]; GPCR CXCR2 (C-X-C motif chemokine receptor 2), 100μM, read-out: % GPCR activation compared to TPA): -0.272%; activation at 100 µM (348 GPCRs [5]; GPCR GPR6 (G protein-coupled receptor 6), 100μM, read-out: % GPCR activation compared to TPA): 1.83%; activation at 100 µM (348 GPCRs [7]; GPCR GPR119 (G protein-coupled receptor 119), 100μM, read-out: % GPCR activation compared to TPA): 3.67%; activation at 100 µM (348 GPCRs [10]; GPCR CysLT1 (cysteinyl leukotriene receptor 1), 100μM, read-out: % GPCR activation compared to TPA): -0.478%
3 | -2.47 | -0.00545 | 0.926 | -1.32 | -0.366 | -3.12 | -26.9 | -2.13 | 2.59 | -1.72 | CC(C)C(=O)OC[C@H]1O[C@@H](n2ccc(NO)nc2=O)[C@H](O)[C@@H]1O [molnupiravir] |  |  |  |  |  |  |  |  |  |  | 

Second part, the molecule before the results:

Row | Structure (SMILES) | activation at 10 µM (348 GPCRs [1]; [11]) [%] | activation at 10 µM (348 GPCRs [2]; [12]) [%] | activation at 10 µM (348 GPCRs [3]; [13]) [%] | activation at 10 µM (348 GPCRs [4]; [14]) [%] | activation at 10 µM (348 GPCRs [5]; [15]) [%] | activation at 100 µM (348 GPCRs [6]; [16]) [%] | activation at 10 µM (348 GPCRs [7]; [17]) [%] | activation at 100 µM (348 GPCRs [8]; [18]) [%] | activation at 10 µM (348 GPCRs [9]; [19]) [%] | activation at 10 µM (348 GPCRs [10]; [20]) [%] | activation at 10 µM (348 GPCRs [1]; [21]) [%] | activation at 10 µM (348 GPCRs [2]; [22]) [%] | activation at 10 µM (348 GPCRs [3]; [23]) [%] | activation at 10 µM (348 GPCRs [4]; [24]) [%] | activation at 10 µM (348 GPCRs [5]; [25]) [%] | activation at 100 µM (348 GPCRs [6]; [26]) [%] | activation at 10 µM (348 GPCRs [7]; [27]) [%] | activation at 100 µM (348 GPCRs [8]; [28]) [%] | activation at 10 µM (348 GPCRs [9]; [29]) [%] | activation at 10 µM (348 GPCRs [10]; [30]) [%] | other results
4 | CCC(CC)COC(=O)[C@H](C)N[P@](=O)(OC[C@H]1O[C@@](C#N)(c2ccc3c(N)ncnn23)[C@H](O)[C@@H]1O)Oc1ccccc1 [remdesivir] |  |  |  |  |  |  |  |  |  |  | -1.11 | 8.13 | 2.41 | -0.876 | 7.41 | 0.905 | 7.14 | -1.09 | 1.11 | 0.442 | 
5 | CC(C)OC(=O)[C@H](C)N[P@](=O)(OC[C@H]1O[C@@H](n2ccc(=O)[nH]c2=O)[C@](C)(F)[C@@H]1O)Oc1ccccc1 [sofosbuvir] |  |  |  |  |  |  |  |  |  |  | -2.01 | -2.48 | -1.43 | -0.976 | -0.69 | 4.12 | -6.04 | 0.408 | 2.99 | -1.58 | 
